The values below come from publication PMC8234462, “Novel Cyclophilin Inhibitor Decreases Cell Proliferation and Tumor Growth in Models of Hepatocellular Carcinoma” (Cancers, 2021).

The term IC50 denotes the concentration that inhibits the measured activity by half. For orientation: bioavailability means the share of a dose that reaches the circulation, judged against a reference dose that is usually intravenous.

The subject of data set [1] is RPTECs. The experiment in a line: Cytotoxicity, CellTiter Glo. Format: cell-based, human. Particulars: Homo sapiens, RPTEC, 72 h, 3 days of treatment, read-out: IC50 (50% reduction in cell viability). How it is done: The evaluation of the off-target effects of NV651 was performed by ImQuest BioSciences Inc. (Frederick, MD, USA) by analyzing the cytotoxicity in a panel of primary cells. NV651 was evaluated at a concentration of 30 µM and five serial half-logarithmic dilutions in triplicate. The positive control compounds for each cell type were purchased from Sigma-Aldrich (St. Louis, MO, USA) and were as follows: Unstimulated human peripheral blood mononuclear cells (PBMCs), phytohemagglutinin (PHA)-stimulated PBMCs, monocytes/macrophages, dendritic cells, hepatocytes, induced pluripotent stem cell (iPS) neurons: […] AZT, kidney cells (RPTEC): cisplatin and iPS cardiomyocytes: Doxazosin. Human primary renal proximal tubule cells (hRPTEC, Lonza, Basel, Switzerland) were cultured at 1 × 10^4 cells/well in supplemented REGM medium (Lonza, Basel, Switzerland). Following overnight incubation for adherence, cells were treated with NV651 in triplicate. After a 3-day treatment, CellTiter Glo (Promega, Madison, WI, USA) was used. CellTiter Glo was performed to evaluate cell viability. CellTiter Glo Luminescent Cell Viability Assay (Promega, Madison, WI, USA) was performed according to the manufacturer’s instructions.
(ATP-based viability assays read luminescence as a measure of living cells.)

Data set [2] has as its system HEPG2. The experiment in a line: Cell proliferation and viability with Acridine Orange and DAPI. Format: cell-based, human. The method, then: (§1) For the quantification of the total cell number, cells were seeded at a concentration of 6000 cells/well for HEPG2 and 9000 cells/well for HUH7 in a 24-well plate. After 24 h of seeding, cells were treated with 10, 50 or 100 nM of NV651 or DMSO as the control dissolved in their correspondent media, fresh media with compound was added every 72 h. After 72 h of treatment, cells were harvested and stained with DAPI (Santa Cruz Biotechnology, Cat# SC3598, Dallas, TX, USA) and Acridine Orange (AO) (Sigma-Aldrich, Cat# A9231-10ML, St. Louis, MO, USA) at final concentrations of 5 µg/mL and 1.5 µg/mL, respectively. Quantification of the total cell number and nonviable cells was performed every day up to the tenth day. Total cell number was quantified with acridine orange staining, and the cell viability in each sample was quantified by the ratio between cells positive for DAPI staining (nonpermeable dye) and acridine orange staining.

The test system of data set [3] is HUH7. Described as above. Format: cell-based, human. How it is done: as §1
Data set [4] is described as follows: Pharmacokinetics IV and PO. Format: in vivo. To be noted: male, CD1, mouse, blood, mice; for Tmax: read-out: time of peak concentration in blood (converted). How it is done: These experiments were performed by Shanghai ChemPartner Co., Ltd. (Shanghai, China) following the guidance described above.
Thirty microliters of blood or liver samples were mixed with 100-µL Pierce Acetonitrile (ACN, Thermo Fisher Scientific, Waltham, MA, USA) containing 20-ng/mL IS (702) used as the internal standard. An aliquot of 10-µL supernatant was injected for LC-MS/MS analysis using LCMSMS-003 (API4000).
NV651 was prepared as described above. Six- to eight-week-old male mice were treated IV with 0.5 mg/kg or PO with 5 mg/kg, with 3 mice per group. Blood and plasma samples were taken pre-dose; at 5 min of treatment and at 1, 2, 4, 8 or 24 h. Analysis was performed as indicated above.

The subject of data set [5] is LIXC-086. The experiment in a line: Cell proliferation assay: Acumen. Format: cell-based. To be noted: Homo sapiens, 168 h, 7 days, read-out: Abs IC50 growth inhibition. The method, then:
(§2) Compound screening and comparison of the antiproliferative effect of NV651 and sorafenib were performed by Shanghai ChemPartner Co., Ltd. (Shanghai, China). Cells were seeded in a 96-well plate at the following concentrations: LIXC-003 400 cells/well, LIXC-004 1000 cells/well, LIXC-086 5000 cells/well, LIXC-066 1250 cells/well, LIXC-012 2000 cells/well, LIXC-006 1250 cells/well, HEPG2 1000 cells/well, HUH7 2000 cells/well and Hep3B2.1-7-Luc 1000 cells/well. Cells were treated with either sorafenib or NV651 at 0.004, 0.011, 0.034, 0.103, 0.309, 0.926, 2.778, 8.333, 25 µM or an equivalent volume with DMSO.
(§3) After 7 days, cells were trypsinized and collected. Fifty microliters of cell suspension were added to 50 µL of 2-µM Calcein AM (Invitrogen, Cat# C3099, Waltham, MA, USA) diluted in HBSS and placed in a black-walled 96-well plate. The plate was left for 30 min at room temperature, followed by a scan with Acumen eX3.
(§4) Growth inhibition for direct cell counting (%) by Acumen was calculated as:(1) 100−100∗Experimental count−Blank/DMSO count −Blank

Data set [6] deals with LIXC-066. The experiment in a line: Cell proliferation assay: Acumen. Format: cell-based. Particulars: Homo sapiens, 168 h, 7 days, read-out: Abs IC50 growth inhibition. The method, then:
as §2, §3, §4

For data set [7], the system named is HEP3B2.1-7-Luc. The experiment in a line: Cell proliferation assay: Acumen. Format: cell-based. To be noted: Homo sapiens, 168 h, 7 days, read-out: Abs IC50 growth inhibition. How it is done: as §2, §3, §4

Where two headings read alike, the source gives them in different places.

For the compound `CC(=O)CCC1C(=O)NC(C(C)C)C(=O)NC(Cc2cc(O)cc(F)c2)C(=O)N2CCCC(N2)C(=O)OC(C(C)=CC=CC(=O)OC(C)(C)C)CC=CC=CC(O)C(C)C1O` (centres unmarked) [NV651], the half-maximal inhibitory concentration (IC50) worked out at 20900 nM in data set [1], 656 nM in data set [5], 169 nM in data set [6] and 9 nM in data set [7]. Also, the “doubling time, elevated to” value in data set [2] (different concentrations of NV651 up to 10 days, from 43 h) is reported as 827 h; in data set [3] (different concentrations of NV651 up to 10 days, from 35 h), 155 h. Also, the results for the “cell viability (DAPI+ / AO+ cells)” value in data set [2] (up to 10 days of exposure) and in data set [3] (after 10 days of exposure) were “could not observe any differences” and “significant decrease”, respectively. This compound also came in with a bioavailability in data set [4] (0.5 mg/kg IV vs 5 mg/kg PO) of 2%. Further, the values for the Tmax in data set [4] (0.5 mg/kg IV) and in data set [4] (5 mg/kg PO) were approximately 5 min and approximately 60 min, respectively.
